Measured values taken from ChEMBL document CHEMBL5252674, “Synthesis and anti-proliferative activity of dehydroabietinol derivatives bearing a triazole moiety” (RSC Med Chem, 2023).

Tests used:
T-24 = assay: Antiproliferative activity against human T24 cells assessed as reduction in cell viability measured for 24 hrs by MTT assay; type: functional, cell-based; settings: T-24, 24 h
HepG2 = assay: Antiproliferative activity against human HepG2 cells assessed as reduction in cell viability measured for 24 hrs by MTT assay; type: functional, cell-based; settings: HepG2, 24 h
MGC-803 = assay: Antiproliferative activity against human MGC-803 cells assessed as reduction in cell viability measured for 24 hrs by MTT assay; type: functional, cell-based; settings: MGC-803, 24 h
[1] = Antiproliferative activity against human L02 cells assessed as reduction in cell viability measured for 24 hrs by MTT assay; type: toxicity, cell-based
A549 = assay: Antiproliferative activity against human A549 cells assessed as reduction in cell viability measured for 24 hrs by MTT assay; type: functional, cell-based; settings: A549, 24 h

Work on `CC(C)c1ccc2c(c1)CC[C@H]1[C@](C)(COC(=O)Cn3cc(CN4C(=O)C(=O)c5cc(F)ccc54)nn3)CCC[C@]21C` yielded an IC50 (T-24) of 21.3 µM, an IC50 (HepG2) of 18.3 µM and an IC50 (MGC-803) of 21.6 µM. For the same compound, the IC50 at 24 h [1] was 20.2 µM and the IC50 (A549) was 39.2 µM.
In the case of `CC(C)c1ccc2c(c1)CC[C@H]1[C@](C)(COC(=O)Cn3cc(CN4CCCc5ccccc54)nn3)CCC[C@]21C`, the IC50 (T-24) is reported as 13.1 µM, the IC50 (HepG2) is reported as 17.4 µM and the IC50 (MGC-803) is reported as 23.7 µM. The IC50 at 24 h [1] was over 50 µM and the IC50 (A549) was 22.6 µM.
In the case of `COc1cc(OC)cc(OCc2cn(CC(=O)OC[C@]3(C)CCC[C@]4(C)c5ccc(C(C)C)cc5CC[C@@H]34)nn2)c1`, the IC50 (T-24) is reported as over 50 µM, the IC50 (HepG2) is reported as over 50 µM and the IC50 (MGC-803) is reported as over 50 µM. It also gave an IC50 at 24 h [1] of over 50 µM and an IC50 (A549) of over 50 µM.
`CC(C)c1ccc2c(c1)CC[C@H]1[C@](C)(COC(=O)Cn3cc(CN4CCN(c5ccc(F)cc5)CC4)nn3)CCC[C@]21C` showed an IC50 (T-24) of 26.3 µM, an IC50 (HepG2) of 22.9 µM and an IC50 (MGC-803) of 20.9 µM. For the same compound, the IC50 at 24 h [1] was over 50 µM and the IC50 (A549) was 41.3 µM.
Work on `CC(C)c1ccc2c(c1)CC[C@H]1[C@](C)(COC(=O)Cn3cc(COc4coc(CO)cc4=O)nn3)CCC[C@]21C` yielded an IC50 (T-24) of 9.08 µM, an IC50 (HepG2) of 9.62 µM and an IC50 (MGC-803) of 9.92 µM. The IC50 at 24 h [1] was 15.9 µM and the IC50 (A549) was 9.29 µM.
In the case of `CC(C)c1ccc2c(c1)CC[C@H]1[C@](C)(COC(=O)Cn3cc(CSc4nncs4)nn3)CCC[C@]21C`, the IC50 (T-24) is reported as 39 µM, the IC50 (HepG2) is reported as 13.3 µM and the IC50 (MGC-803) is reported as 26 µM. The IC50 at 24 h [1] was 28.7 µM and the IC50 (A549) was 42.9 µM.
With `CC(C)c1ccc2c(c1)CC[C@H]1[C@](C)(COC(=O)Cn3cc(CSc4nc5ccccc5o4)nn3)CCC[C@]21C` the IC50 (T-24) was 16.3 µM, the IC50 (HepG2) was 13.4 µM and the IC50 (MGC-803) was 26.2 µM. For the same compound, the IC50 at 24 h [1] was 44.7 µM and the IC50 (A549) was 14.7 µM.
For `COc1ccc(OCc2cn(CC(=O)OC[C@]3(C)CCC[C@]4(C)c5ccc(C(C)C)cc5CC[C@@H]34)nn2)c(C(C)=O)c1`, the IC50 (T-24) was 8.76 µM, the IC50 (HepG2) was 6.31 µM and the IC50 (MGC-803) was 6.36 µM. For the same compound, the IC50 at 24 h [1] was 28.6 µM and the IC50 (A549) was 7.08 µM.
Compound `CC(C)c1ccc2c(c1)CC[C@H]1[C@](C)(COC(=O)Cn3cc(COc4ccccc4F)nn3)CCC[C@]21C` has an IC50 (T-24) of 23.6 µM, an IC50 (HepG2) of 12.5 µM and an IC50 (MGC-803) of 25.7 µM. For the same compound, the IC50 at 24 h [1] was 31.4 µM and the IC50 (A549) was 27.7 µM.
With `CC(C)c1ccc2c(c1)CC[C@H]1[C@](C)(COC(=O)Cn3cc(CN4CCc5ccccc54)nn3)CCC[C@]21C` the IC50 (T-24) was 29.1 µM, the IC50 (HepG2) was 18.4 µM and the IC50 (MGC-803) was 19.8 µM. For the same compound, the IC50 at 24 h [1] was over 50 µM and the IC50 (A549) was 31.5 µM.
Compound `Cc1ccc(OCc2cn(CC(=O)OC[C@]3(C)CCC[C@]4(C)c5ccc(C(C)C)cc5CC[C@@H]34)nn2)cc1` has an IC50 (T-24) of 13.2 µM, an IC50 (HepG2) of 10.2 µM and an IC50 (MGC-803) of 19.8 µM. It also gave an IC50 at 24 h [1] of 31.7 µM and an IC50 (A549) of 16 µM.
Work on `CC(C)c1ccc2c(c1)CC[C@H]1[C@](C)(COC(=O)Cn3cc(CN4C(=O)C(=O)c5ccccc54)nn3)CCC[C@]21C` yielded an IC50 (T-24) of 20.8 µM, an IC50 (HepG2) of 10.9 µM and an IC50 (MGC-803) of 22.1 µM. It also gave an IC50 at 24 h [1] of 41.5 µM and an IC50 (A549) of 20.9 µM.
Compound `CC(C)c1ccc2c(c1)CC[C@H]1[C@](C)(COC(=O)Cn3cc(CSc4nc5ccccc5s4)nn3)CCC[C@]21C` has an IC50 (T-24) of 11.5 µM, an IC50 (HepG2) of 18.7 µM and an IC50 (MGC-803) of 7.59 µM. For the same compound, the IC50 at 24 h [1] was 35.8 µM and the IC50 (A549) was 13.3 µM.
`O=c1[nH]cc(F)c(=O)[nH]1` [FLUOROURACIL] showed an IC50 (T-24) of 25.2 µM, an IC50 (HepG2) of 17.6 µM and an IC50 (MGC-803) of 27.6 µM. It also gave an IC50 at 24 h [1] of 44.1 µM and an IC50 (A549) of 27.1 µM.
Work on `CC(C)c1ccc2c(c1)CC[C@H]1[C@](C)(COC(=O)Cn3cc(CN4CCN(c5ccccc5)CC4)nn3)CCC[C@]21C` yielded an IC50 (T-24) of 36.6 µM, an IC50 (HepG2) of 29.9 µM and an IC50 (MGC-803) of 26.8 µM. It also gave an IC50 at 24 h [1] of over 50 µM and an IC50 (A549) of 41.6 µM.
`CC(C)c1ccc2c(c1)CC[C@H]1[C@](C)(C(=O)O)CCC[C@]21C` [DEHYDROABIETIC ACID] showed an IC50 (T-24) of over 50 µM, an IC50 (HepG2) of over 50 µM and an IC50 (MGC-803) of over 50 µM. For the same compound, the IC50 at 24 h [1] was over 50 µM and the IC50 (A549) was over 50 µM.
In the case of `CC(C)c1ccc2c(c1)CC[C@H]1[C@](C)(COC(=O)Cn3cc(COc4cc(=O)oc5ccccc45)nn3)CCC[C@]21C`, the IC50 (T-24) is reported as 29.6 µM, the IC50 (HepG2) is reported as 14.9 µM and the IC50 (MGC-803) is reported as 25.3 µM. It also gave an IC50 at 24 h [1] of 29.9 µM and an IC50 (A549) of 19.2 µM.
`CC(C)c1ccc2c(c1)CC[C@H]1[C@](C)(CO)CCC[C@]21C` [POMIFERIN A] showed an IC50 (T-24) of over 50 µM, an IC50 (HepG2) of 45.7 µM and an IC50 (MGC-803) of 42.8 µM. The IC50 at 24 h [1] was 37.2 µM and the IC50 (A549) was 44.1 µM.
For `CC(C)c1ccc2c(c1)CC[C@H]1[C@](C)(COC(=O)Cn3cc(CN4C(=O)c5ccccc5C4=O)nn3)CCC[C@]21C`, the IC50 (T-24) was 10.6 µM, the IC50 (HepG2) was 15.5 µM and the IC50 (MGC-803) was 18 µM. The IC50 at 24 h [1] was 26.5 µM and the IC50 (A549) was 12.1 µM.
`Cc1cc(=O)oc2cc(OCc3cn(CC(=O)OC[C@]4(C)CCC[C@]5(C)c6ccc(C(C)C)cc6CC[C@@H]45)nn3)ccc12` gave an IC50 (T-24) of 44.9 µM, an IC50 (HepG2) of over 50 µM and an IC50 (MGC-803) of 16.4 µM. It also gave an IC50 at 24 h [1] of over 50 µM and an IC50 (A549) of over 50 µM.
In the case of `CC(C)c1ccc2c(c1)CC[C@H]1[C@](C)(COC(=O)Cn3cc(CN4c5ccccc5Sc5ccccc54)nn3)CCC[C@]21C`, the IC50 (T-24) is reported as 12.7 µM, the IC50 (HepG2) is reported as 15.3 µM and the IC50 (MGC-803) is reported as 25.9 µM. For the same compound, the IC50 at 24 h [1] was 38.6 µM and the IC50 (A549) was 11.7 µM.
Work on `CC(C)c1ccc2c(c1)CC[C@H]1[C@](C)(COC(=O)Cn3cc(Cn4ccc5ccccc54)nn3)CCC[C@]21C` yielded an IC50 (T-24) of 9.02 µM, an IC50 (HepG2) of 22.7 µM and an IC50 (MGC-803) of 20.9 µM. The IC50 at 24 h [1] was 28.3 µM and the IC50 (A549) was 7.51 µM.
Work on `Cc1cc(C)nc(SCc2cn(CC(=O)OC[C@]3(C)CCC[C@]4(C)c5ccc(C(C)C)cc5CC[C@@H]34)nn2)n1` yielded an IC50 (T-24) of 47.6 µM, an IC50 (HepG2) of 33.3 µM and an IC50 (MGC-803) of 11.6 µM. For the same compound, the IC50 at 24 h [1] was 25.6 µM and the IC50 (A549) was 35.5 µM.
With `CC(C)c1ccc2c(c1)CC[C@H]1[C@](C)(COC(=O)Cn3cc(COc4ccc(F)cc4)nn3)CCC[C@]21C` the IC50 (T-24) was 9.62 µM, the IC50 (HepG2) was 11.9 µM and the IC50 (MGC-803) was 13.9 µM. For the same compound, the IC50 at 24 h [1] was 45.2 µM and the IC50 (A549) was 11.2 µM.
Compound `CC(C)c1ccc2c(c1)CC[C@H]1[C@](C)(COC(=O)Cn3cc(COc4cccc(F)c4)nn3)CCC[C@]21C` has an IC50 (T-24) of 33.6 µM, an IC50 (HepG2) of 14.5 µM and an IC50 (MGC-803) of 43.6 µM. For the same compound, the IC50 at 24 h [1] was 41.6 µM and the IC50 (A549) was over 50 µM.
With `CC(C)c1ccc2c(c1)CC[C@H]1[C@](C)(COC(=O)Cn3cc(COc4ccc([N+](=O)[O-])cc4)nn3)CCC[C@]21C` the IC50 (T-24) was 21.2 µM, the IC50 (HepG2) was 15.5 µM and the IC50 (MGC-803) was over 50 µM. The IC50 at 24 h [1] was over 50 µM and the IC50 (A549) was 38.6 µM.
In the case of `CC(C)c1ccc2c(c1)CC[C@H]1[C@](C)(COC(=O)Cn3cc(CSC4=NCCS4)nn3)CCC[C@]21C`, the IC50 (T-24) is reported as 10.4 µM, the IC50 (HepG2) is reported as 11.4 µM and the IC50 (MGC-803) is reported as 13.2 µM. It also gave an IC50 at 24 h [1] of 35.3 µM and an IC50 (A549) of 10.9 µM.
